Read-outs that look alike come from different tables or passages of the source.
Tests used:
Type in all cases: in vivo
[1] = system: Alopecurus myosuroides (ALOMY); assay: Pre-emergence herbicidal action against ALOMY; conditions: scored visually after about 3 weeks, 100% = plants have died
Description: (§1) Seeds of monocotyledonous and dicotyledonous weed plants and crop plants are placed in plastic or organic planting pots and covered with soil. The compounds of the invention, formulated in the form of wettable powders (WP) or as emulsion concentrates (EC), are then applied to the surface of the covering soil as aqueous suspension or emulsion with addition of 0.5% additive at a water application rate equivalent to 600 l/ha. After the treatment, the pots are placed in a greenhouse and kept under good growth conditions for the trial plants. After about 3 weeks, the effect of the preparations is scored visually in comparison with untreated controls as percentages. For example, 100% activity=the plants have died, 0% activity=like control plants.
(§2) Tables A1 to A13 below show the effects of selected compounds of the general formula (I) on various harmful plants and at an application rate corresponding to 320 g/ha or lower, which were obtained by the experimental procedure mentioned above. The appendices “a”, “b” and “c” give differentiation by dosage used with otherwise the same harmful plants tested.

[2] = system: Amaranthus retroflexus (AMARE); assay: Pre-emergence herbicidal action against AMARE; conditions: visual scoring after about 3 weeks vs untreated controls
Description: as §1, §2

Avena fatua (AVEFA) [3] = assay: Pre-emergence herbicidal action against AVEFA; conditions: visual scoring after about 3 weeks vs untreated controls
Description: as §1, §2

[4] = system: Echinochloa crus-galli (ECHCG); assay: Pre-emergence herbicidal action against ECHCG; conditions: dosage 320 g/ha
Description: as §1, §2

Lolium rigidum (LOLRI) [5] = assay: Pre-emergence herbicidal action against LOLRI
Description: as §1, §2

[6] = system: Matricaria inodora (MATIN); assay: Pre-emergence herbicidal action against MATIN; conditions: dosage 320 g/ha
Description: as §1, §2

[7] = system: Pharbitis purpurea (PHBPU); assay: Pre-emergence herbicidal action against PHBPU; conditions: dosage 320 g/ha
Description: as §1, §2

[8] = system: Polygonum convolvulus (POLCO); assay: Pre-emergence herbicidal action against POLCO
Description: as §1, §2

Setaria viridis (SETVI) [9] = assay: Pre-emergence herbicidal action against SETVI
Description: as §1, §2

[10] = system: Verconica persica (VERPE); assay: Pre-emergence herbicidal action against VERPE
Description: as §1, §2

Viola tricolor (VIOTR) [11] = assay: Pre-emergence herbicidal action against VIOTR
Description: as §1, §2

[12] = system: Alopecurus myosuroides (ALOMY); assay: Post-emergence herbicidal action against ALOMY; conditions: visual rating about 3 weeks after treatment vs untreated controls (100% = plants have died, 0% = like control plants)
Method: (§3) Seeds of monocotyledonous and dicotyledonous weeds and crop plants are placed in sandy loam in plastic or organic planting pots, covered with soil and cultivated in a greenhouse under controlled growth conditions. 2 to 3 weeks after sowing, the test plants are treated at the one-leaf stage. The compounds of the invention, formulated in the form of wettable powders (WP) or as emulsion concentrates (EC), are then sprayed onto the green parts of the plants as aqueous suspension or emulsion with addition of 0.5% additive at a water application rate of 600 l/ha (converted). After the test plants have been kept in the greenhouse under optimum growth conditions for about 3 weeks, the activity of the preparations is rated visually in comparison to untreated controls. For example, 100% activity=the plants have died, 0% activity=like control plants.
(§4) Tables B1 to B13 below show the effects of selected compounds of the general formula (I) according to Table 1 on various harmful plants and at an application rate corresponding to 320 g/ha or lower, which were obtained by the experimental procedure mentioned above. The appendices “a”, “b” and “c” give differentiation by dosage used with otherwise the same harmful plants tested.

Avena fatua (AVEFA) [13] = assay: Post-emergence herbicidal action against AVEFA; conditions: visual rating about 3 weeks after treatment
Method: as §3, §4

[14] = system: Echinochloa crus-galli (ECHCG); assay: Post-emergence herbicidal action against ECHCG
Method: as §3, §4

Lolium rigidum (LOLRI) [15] = assay: Post-emergence herbicidal action against LOLRI; conditions: dosage 80 g/ha
Method: as §3, §4

[16] = system: Pharbitis purpurea (PHBPU); assay: Post-emergence herbicidal action against PHBPU
Method: as §3, §4

[17] = system: Verconica persica (VERPE); assay: Post-emergence herbicidal action against VERPE
Method: as §3, §4

Viola tricolor (VIOTR) [18] = assay: Post-emergence herbicidal action against VIOTR; conditions: 80 g/ha
Method: as §3, §4

Oryza sativa (ORYSA) = conditions: crop plant compatibility
Method: as §3
(§5) The observed effects on selected crop plants are reported here in comparison to the untreated controls (values in %). The appendices “a”, “b” and “c” give differentiation by dosage used with otherwise the same crop plants tested.

Zea mays (ZEAMX) = conditions: for Post-emergence action against ZEAMX in % (crop plant compatibility): 20 g/ha, effect in comparison to untreated controls; for Post-emergence action against ZEAMX in %: crop plant compatibility, 80 g/ha, effect vs untreated controls
Method: as §3, §5

[19] = system: Amaranthus retroflexus (AMARE); assay: Post-emergence herbicidal action against AMARE
Method: as §3, §4

Setaria viridis (SETVI) [20] = assay: Post-emergence herbicidal action against SETVI
Method: as §3, §4

[21] = system: Polygonum convolvulus (POLCO); assay: Post-emergence herbicidal action against POLCO
Method: as §3, §4

[22] = 20 g/ha, effect vs untreated controls
[23] = 80 g/ha, effect in comparison to untreated controls
[24] = 80 g/ha, visual rating about 3 weeks after treatment vs untreated controls (100% = plants have died, 0% = like control plants)

Structure (SMILES) | Pre-emergence action against ALOMY ([1]; 80 g/ha) [%] | Pre-emergence action against ALOMY ([1]; 320 g/ha) [%] | Pre-emergence action against AMARE in % ([2]; 80 g/ha) [%] | Pre-emergence action against AMARE in % ([2]; 320 g/ha) [%] | Pre-emergence action against AVEFA in % (Avena fatua (AVEFA) [3]; 320 g/ha) [%] | Pre-emergence action against ECHCG in % [4] [%] | Pre-emergence action against LOLRI in % (Lolium rigidum (LOLRI) [5]; dosage 80 g/ha) [%] | Pre-emergence action against LOLRI in % (Lolium rigidum (LOLRI) [5]; dosage 320 g/ha) [%] | Pre-emergence action against MATIN in % [6] [%] | Pre-emergence action against PHBPU in % [7] [%] | Pre-emergence action against POLCO in % ([8]; dosage 320 g/ha) [%] | Pre-emergence action against SETVI in % (Setaria viridis (SETVI) [9]; dosage 80 g/ha) [%] | Pre-emergence action against SETVI in % (Setaria viridis (SETVI) [9]; dosage 320 g/ha) [%] | Pre-emergence action against VERPE in % ([10]; dosage 320 g/ha) [%] | Pre-emergence action against VIOTR in % (Viola tricolor (VIOTR) [11]; 320 g/ha, Viola tricolor) [%] | Pre-emergence action against VIOTR in % (Viola tricolor (VIOTR) [11]; dosage 80 g/ha) [%] | Post-emergence action against ALOMY in % ([12]; 80 g/ha) [%] | Post-emergence action against AVEFA in % (Avena fatua (AVEFA) [13]; 80 g/ha) [%] | Post-emergence action against ECHCG in % ([14]; dosage 80 g/ha) [%] | Post-emergence action against PHBPU in % ([16]; dosage 80 g/ha) [%] | further results
CCOC(=O)[C@@H](C)Oc1nn(-c2ncccc2F)c(-c2ccc(F)nc2)c1Cl [Example I-32] | 90 | 100 | 90 | 100 | 100 | 100 | 90 | 100 | 90 | 80 | 90 | 100 | 100 | 100 | 100 | 100 | 90 | 90 | 80 | 80 | Pre-emergence action against AVEFA in % (Avena fatua (AVEFA) [3]; 80 g/ha): 90%; Pre-emergence action against POLCO in % ([8]; dosage 80 g/ha): 90%; Pre-emergence action against VERPE in % ([10]; dosage 80 g/ha): 80%; Post-emergence action against LOLRI in % (Lolium rigidum (LOLRI) [15]): 90%; Post-emergence action against VERPE in % ([17]; dosage 80 g/ha): 80%; Post-emergence action against VIOTR in % (Viola tricolor (VIOTR) [18]): 80%; Post-emergence action against ORYSA in % (Oryza sativa (ORYSA); [22]): 0%; Post-emergence action against ORYSA in % (Oryza sativa (ORYSA); [23]): 0%; Post-emergence action against ZEAMX in % (crop plant compatibility) (Zea mays (ZEAMX)): 20%
O=C(O)COc1nn(-c2ncccc2F)c(-c2ccc(F)nc2)c1C1CC1 [Example I-43] | 100 | 100 | 80 | 90 | 100 | 100 | 90 | 100 | 80 | 80 | 80 | 100 | 100 | 90 | 100 | 100 | 90 | 90 | 90 |  | Post-emergence action against AMARE in % [19, 24]: 80%; Post-emergence action against SETVI in % (Setaria viridis (SETVI) [20]; dosage 80 g/ha): 90%; Post-emergence action against ORYSA in % (Oryza sativa (ORYSA); [22]): 10%; Post-emergence action against ZEAMX in % (crop plant compatibility) (Zea mays (ZEAMX)): 10%; Post-emergence action against ZEAMX in % (Zea mays (ZEAMX)): 10%
C[C@H](NC(=O)COc1nn(-c2ccccn2)c(-c2cncc(F)c2)c1Br)C(=O)O [Example I-80] | 100 | 100 | 90 | 90 | 90 | 100 |  | 100 | 90 | 90 | 90 | 90 | 100 | 90 | 90 |  |  | 80 | 80 | 80 | Post-emergence action against ALOMY in % ([12]; 320 g/ha): 90%; Post-emergence action against AMARE in % [19, 24]: 80%; Post-emergence action against AMARE in % ([19]; 320 g/ha, visual rating about 3 weeks after treatment): 80%; Post-emergence action against AVEFA in % (Avena fatua (AVEFA) [13]; 320 g/ha): 80%; Post-emergence action against ECHCG in % ([14]; dosage 320 g/ha): 80%; Post-emergence action against PHBPU in % ([16]; dosage 320 g/ha): 80%; Post-emergence action against POLCO in % ([21]; dosage 80 g/ha): 80%; Post-emergence action against POLCO in % ([21]; dosage 320 g/ha): 80%; Post-emergence action against SETVI in % (Setaria viridis (SETVI) [20]; dosage 320 g/ha): 80%; Post-emergence action against VERPE in % ([17]; 320 g/ha, VERPE): 80%; Post-emergence action against ORYSA in % (Oryza sativa (ORYSA); [23]): 20%; Post-emergence action against ORYSA in % (Oryza sativa (ORYSA); 320 g/ha, effect in comparison to untreated controls): 20%; Post-emergence action against ZEAMX in % (Zea mays (ZEAMX)): 20%
